In patent US3931143A, “Unsymmetrical aliphatic monoazo compounds” (priority 1971, dated 1976):
Where two headings read alike, the source gives them in different places.

Legend:
[1] = for temperature of 10 hour half-life: in trichlorobenzene; for t1/2: trichlorobenzene; for 10 hr. t1/2 temp.: Table II, solvent not given
rat = conditions: in rat; decomposition residue of AIBN; cited from earlier work
[2] = Preliminary toxicological studies compared with AIBN
Excerpt: In general, the new compositions of the present invention eliminate these problems. The tertiary-(alkyl, cycloalkyl, bicycloalkyl or aralkyl) group on the one side of the azo function lowers the melting point of these compounds so that most of them are liquids or low melting solids which can be handled in the melted state. In addition, this tertiary group increases the solubility of these azos so that most of them are completely miscible with the common organic solvents including petroleum hydrocarbons. Thus, no dusting, metering, incorporating, mixing, and dispersing problems are encountered in using these new compositions. […] The less toxic nature of the new compositions coupled with their liquid and high solubility properties allows them to be used in many applications where AIBN cannot be used.

[3] = Thermal decomposition half-life in odorless mineral spirits; type: physicochemical
[4] = Solubility in petroleum / hydrocarbon / common organic solvents; conditions: even at temperatures as low as -20°C
[5] = Thermal decomposition half-life in water; type: physicochemical
[6] = Stability in unsaturated polyester-styrene resin at room temperature; type: physicochemical; conditions: unsaturated polyester-styrene resin of Example III
Protocol: An unsaturated polyester resin was made by reacting maleic anhydride (1.0 mole), phthalic anhydride (1.0 mole), and propylene glycol (2.2 moles) until an acid number of 45-50 was obtained. To this was added hydroquinone at a 0.013% concentration. Seven parts of this unsaturated polyester was diluted with 3 parts of monomeric styrene to obtain a homogeneous blend having a viscosity of 13.08 poise and a specific gravity of 1.14.

In the case of `CC(C)(C)N=NC(C)(C#N)C1CC1` (stereo not drawn) [1-t-Butylazo-1-cyano-1-cyclopropylethane], the “temperature of 10 hour half-life” value [1] is reported as 62 °C.
For `CC(C)(C#N)C(C)(C)C#N` [2,2,3,3-tetramethylsuccinonitrile], the LD50 (rat) is listed as 30 mg/kg.
For `CC(C)(C)N=NC(C)(C#N)COC(=O)c1ccccc1` (stereo not drawn) [2-t-Butylazo-2-cyano-1-benzoyloxypropane], the “temperature of 10 hour half-life” value [1] was “approximately 77 °C”.
For `CC(C)C(=O)OCC(C)(C#N)N=NC(C)(C)C` (stereo not drawn) [2-t-Butylazo-2-cyano-1-isobutyroyloxypropane], the “temperature of 10 hour half-life” value [1] was “approximately 79 °C”.
In the case of `CC(C)(C)N=NC(C)(C#N)COC(=O)C(C)(C)C` (stereo not drawn) [2-t-Butylazo-2-cyano-1-pivaloyloxypropane], the “temperature of 10 hour half-life” value [1] is reported as “approximately 75 °C”.
With `CC(C)CCC(C)(C#N)N=NC(C)(C)C` (stereo not drawn) [2-t-Butylazo-2-cyano-5-methylhexane] the “temperature of 10 hour half-life” value [1] was “approximately 78 °C”.
For `CC(C)(C)N=NC(C)(C)C(N)=NO` [2-t-Butylazo-2-methylpropionamidoxime], the “temperature of 10 hour half-life” value [1] was “approximately 90 °C”.
In the case of `CC(C)(C)N=NC1(C#N)CCCCCC1` [Example 1-t-Butylazo-1-cyanocycloheptane, 1-t-Butylazo-1-cyanocycloheptane], the “temperature of 10 hour half-life” value [1] is reported as “approximately 68 °C”.
For `CC(C)(C)N=NC1(C#N)CCCCCCC1` [Example 1-t-Butylazo-1-cyanocyclooctane, 1-t-Butylazo-1-cyanocyclooctane], the “temperature of 10 hour half-life” value [1] was “approximately 55 °C”.
With `CC(C)(C)N=NC(C)(C)C#N` [Example I, 2-t-Butylazo-2-cyanopropane] the “toxicity compared with AIBN” value [2] was “significantly less toxic than AIBN”, the “temperature of 10 hour half-life” value [3] was 86 °C and the “temperature of 10 hour half-life” value [1] was 79 °C. The t1/2 ([1]; 70 °C) was 40.5 h, the t1/2 ([1]; 78.8 °C) was 10.0 h and the t1/2 ([1]; 90 °C) was 2.0 h. For the same molecule, the t1/2 ([1]; 100 °C) was 0.54 h and the t1/2 ([1]; 110 °C) was 0.20 h.
With `CC(C)(N=NC1(C#N)CCCCC1)c1ccccc1` [Example LVI, 1-t-Cumylazo-1-cyanocyclohexane] the “temperature of 10 hour half-life” value [1] was “approximately 62.5 °C”.
For `CC(C)CC(C)(C#N)N=NC(C)(C)c1ccccc1` (stereo not drawn) [Example LVII, 2-t-Cumylazo-2-cyano-4-methylpentane], the “temperature of 10 hour half-life” value [1] was “approximately 33 °C”.
For `CC(C)(C)N=NC(C)(C)C(N)=O` [Example LXIV, 2-t-Butylazo-2-carbamylpropane], the “temperature of 10 hour half-life” value [1] was 110 °C.
In the case of `CC(C)(C)N=NC1(C#N)CCCCC1` [Example V, 1-t-Butylazo-1-cyanocyclohexane], the “temperature of 10 hour half-life” value [1] is reported as 96 °C, the t1/2 ([1]; 96.3 °C) is reported as 10.0 h and the t1/2 ([1]; 100 °C) is reported as 6.7 h. The t1/2 ([1]; 110 °C) was 2.3 h and the t1/2 ([1]; 120 °C) was 0.75 h.
With `CCC(C)(C#N)N=NC(C)(C)C` (stereo not drawn) [Example VI, 2-t-Butylazo-2-cyanobutane] the “temperature of 10 hour half-life” value [3] was “around 82 °C”, the “temperature of 10 hour half-life” value [1] was “around 80 °C” and the “solubility in hydrocarbon solvents” value [4] was “very soluble”.
With `CC(C)CC(C#N)(CC(C)C)N=NC(C)(C)C` [Example VII, 4-t-Butylazo-4-cyano-2,6-dimethylheptane] the “temperature of 10 hour half-life” value [1] was 61 °C.
For `CC1CC(C)(C)CC(C#N)(N=NC(C)(C)C)C1` (stereo not drawn) [Example VIII, 1-t-Butylazo-1-cyano-3,3,5-trimethylcyclohexane], the “temperature of 10 hour half-life” value [1] was 78 °C.
With `CC(C)(C)N=NC(C)(C#N)CCC(=O)O` (stereo not drawn) [Example X, 4-t-Butylazo-4-cyanovaleric Acid] the “temperature of 10 hour half-life” value [5] was 73 °C and the “temperature of 10 hour half-life” value [1] was 76 °C.
For `CC(C)(C#N)N=NC(C)(C)c1ccccc1` [Example XII, 2-t-Cumylazo-2-cyanopropane], the “temperature of 10 hour half-life” value [1] was 50 °C.
In the case of `CC(C)CC(C)(C#N)N=NC(C)(C)C` (stereo not drawn) [Example XXXII, 2-t-Butylazo-2-cyano-4-methylpentane], the “period stable in the resin” value [6] is reported as “exceeding 1 month” and the “temperature of 10 hour half-life” value [1] is reported as “approximately 70 °C”.
In the case of `COC(C)(C)CC(C)(C#N)N=NC(C)(C)C` (stereo not drawn) [Example XXXIV, 2-t-Butylazo-2-cyano-4-methoxy-4-methylpentane], the “temperature of 10 hour half-life” value [1] is reported as “approximately 55 °C”.
In the case of `CC(C)(C)N=NC(C)(C#N)C(C)(C)C` (stereo not drawn) [IX, 2-t-Butylazo-2-cyano-3,3-dimethylbutane], the “temperature of 10 hour half-life” value [1] is reported as 80 °C.
For `CCCCCCC(C)(C#N)N=NC(C)(C)C` (stereo not drawn) [LI, 2-t-butylazo-2-cyanooctane], the “10 hr. t1/2 temp.” value [1] was 79 °C.
In the case of `CC1(N=NC2(C#N)CCCCC2)CCCCC1` [LXII, 1-t-(Methylcyclohexyl)azo-1-cyanocyclohexane], the “temperature of 10 hour half-life” value [1] is reported as “approximately 100 °C”.
For `CC(C)(C)N=NC1(C(N)=O)CCCCC1` [LXIII, 1-t-Butylazo-1-carbamylcyclohexane], the “temperature of 10 hour half-life” value [1] was 111 °C.
With `CCC(C)(C)N=NC(C)(C)C#N` [XIV, 2-t-Amylazo-2-cyanopropane] the “temperature of 10 hour half-life” value [1] was 79 °C.
In the case of `CC(C)(C)CC(C)(C#N)N=NC(C)(C)C` (stereo not drawn) [XLI, 2-t-butylazo-2-cyano-4,4-dimethylpentane], the “10 hr. t1/2 temp.” value [1] is reported as 52 °C.
In the case of `CC(C)(C)N=NC(C)(C#N)c1ccccc1` (stereo not drawn) [XLII, 1-t-butylazo-1-cyano-1-phenylethane], the “10 hr. t1/2 temp.” value [1] is reported as ~ 30 °C.
In the case of `CC(C)(C)N=NC1(C#N)C(C)(C)C(=O)C1(C)C` [XLIII, 3-t-butylazo-3-cyano-2,2,4,4-tetramethylcyclobutanone], the “10 hr. t1/2 temp.” value [1] is reported as 115 °C.
In the case of `CCC(C)(C)N=NC1(C#N)CCCCC1` [XV, 1-t-Amylazo-1-cyanocyclohexane], the “temperature of 10 hour half-life” value [1] is reported as “approximately 94 °C”.
